Results reported in patent publication US20050112573A1, “Method of detecting toxic substance” (priority 2001, published 2005).

Test system: yeast genes (level of expressed mRNA)
Test: DNA chip analysis of expressed mRNA of yeast genes after 2 h culture with a toxic chemical substance
Type: cell-based, Saccharomyces cerevisiae S288C
Experimental: Yeast (Saccharomyces cerevtisiae S288C (α SUC2mal mel gap2 CUP1)) were cultured at 25° C. on YPD medium (yeast extract 1%, polypepton 2%, glucose 2%). One of toxic chemical substances was added to the cell at logarithmic growth phase, and the cell was further cultured for two hours. Cell was cultured without any chemical substance in the same condition, and was used as control. Concentrations of the chemical substances were defined to inhibit the growth of the yeast but not lead to death.
After the completion of cultivation, the culture was centrifuged to collect the cells. To the cells, sodium acetate buffer (50 mM sodium acetate, 10 mM EDTA, 1% SDS) was added, and the mixture was shaken at 65° C. for five minutes, followed by returning to room temperature, and obtaining the supernatant, which procedure was repeated two times. To the supernatant, ½ amount of a solution of phenol/chloroform was added, and the mixture was centrifuged to give a supernatant, which was added with an equal amount of chloroform, and the mixture was centrifuged to give a supernatant. To the supernatant, an equal amount of isopropanol containing 0.3 M sodium acetate was added, and the mixture was allowed to stand at room temperature for 30 minutes, after which the mixture was centrifuged to give a sediment of the whole RNAs. Seventy % ethanol was added to the sediment, and the mixture was again centrifuged to give a sediment, which was then dried and dissolved in water. mRNA was isolated from the whole RNAs as followings. In view of the fact that a poly A chain is attached to the 3′ terminus of mRNA, a polynucleotide having a poly T structure which was immobilized on the surface of latex beads was used to trap the mRNA, and then the mRNA was washed and eluted with spine column (Oligotex-dT30<Super>mRNA Purification Kit, Takara). Reverse transcription of the mRNA was conducted with a reverse transcriptase (Super Script II Reverse Transcriptase; catalogue No. 18064-014, GibcoBRL) using fluorescence-labeled nucleotides to give cDNAs that were introduced with Cy3-dUTP or Cy5-dUTP during the reverse transcription.
The labeled cDNAs were dissolved in TE buffer (10 mM Tris-HCl/1 mM EDTA, pH8.0), and the solution was dropped on the DNA chip containing the whole genes of yeast (DNA Chip Research Inc. Japan) so that the cDNAs were hybridized on the DNA chip at 65° C. for over 12 hours. The fluoresces intensity of the DNA chip was read with a scanner, and the ratio relative to the fluorescence intensity resulting from the absence of chemical substance was estimated as the following, which is shown in Tables 1 to 9: [formula]
In the Tables, “Intensity” indicated in the rightmost column is a value of the level of expressed mRNA of each gene in control cells as divided by the average level of the expressions of the whole genes.

CdCl2 [(2)] was tested, and the “The level of expressed mRNA in the presence of chemical substance/” value (yeast gene YNL074C, ratio to control without chemical substance, 2 h culture) was 1.3, the “The level of expressed mRNA in the presence of chemical substance/” value (yeast gene YNL092W, ratio to control without chemical substance, 2 h culture) was 1.4 and the “The level of expressed mRNA in the presence of chemical substance/The level of expressed mRNA in the absence of chemical substance” value (yeast gene YNL093W) was 6.4. For the same substance, the “The level of expressed mRNA in the presence of chemical substance/” value (yeast gene YNL115C, ratio to control without chemical substance, 2 h culture) was 1.8, the “The level of expressed mRNA in the presence of chemical substance/” value (yeast gene YNL156C, ratio to control without chemical substance, 2 h culture) was 1.2 and the “The level of expressed mRNA in the presence of chemical substance/” value (yeast gene YNL234W, ratio to control without chemical substance, 2 h culture) was 1.1. For the same substance, the “The level of expressed mRNA in the presence of chemical substance/” value (yeast gene YNL281W, ratio to control without chemical) was 1.3, the “The level of expressed mRNA in the presence of chemical substance/” value (yeast gene YNL305C, ratio to control without chemical) was 2.2 and the “The level of expressed mRNA in the presence of chemical substance/The level of expressed mRNA in the absence of chemical substance” value (yeast gene YNL333W) was 1.4. For the same substance, the “The level of expressed mRNA in the presence of chemical substance/The level of expressed mRNA in the absence of chemical substance” value (yeast gene YNR010W) was 1.2, the “The level of expressed mRNA in the presence of chemical substance/” value (yeast gene YNR068C, ratio to control without chemical) was 1.5 and the “The level of expressed mRNA in the presence of chemical substance/The level of expressed mRNA in the absence of chemical substance” value (yeast gene YNR069C) was 1.3. The “The level of expressed mRNA in the presence of chemical substance/in the absence of chemical substance” value (yeast gene YNR072W) was 1.5, the “The level of expressed mRNA in the presence of chemical substance/The level of expressed mRNA in the absence of chemical substance” value (yeast gene YOL013C) was 1.0 and the “The level of expressed mRNA in the presence of chemical substance/” value (yeast gene YOL032W, ratio to control without chemical) was 0.8. The “The level of expressed mRNA in the presence of chemical substance/” value (yeast gene YOL036W, ratio to control without chemical) was 0.9, the “The level of expressed mRNA in the presence of chemical substance/” value (yeast gene YOL047C, ratio to control without chemical) was 1.1 and the “The level of expressed mRNA in the presence of chemical substance/” value (yeast gene YOL071W, ratio to control without chemical) was 2.0. The “The level of expressed mRNA in the presence of chemical substance/” value (yeast gene YOL082W, ratio to control without chemical) was 1.6, the “The level of expressed mRNA in the presence of chemical substance/” value (yeast gene YOL083W, ratio to control without chemical) was 2.3 and the “The level of expressed mRNA in the presence of chemical substance/in the absence of chemical substance” value (yeast gene YOL096C) was 1.0. The “The level of expressed mRNA in the presence of chemical substance/” value (yeast gene YOL117W, ratio to control without chemical) was 1.1, the “The level of expressed mRNA in the presence of chemical substance/” value (yeast gene YOL131W, ratio to control without chemical) was 1.5 and the “The level of expressed mRNA in the presence of chemical substance/” value (yeast gene YOL150C, ratio to control without chemical substance, 2 h culture) was 3.7. The “The level of expressed mRNA in the presence of chemical substance/” value (yeast gene YOL162W, ratio to control without chemical) was 6.9, the “The level of expressed mRNA in the presence of chemical substance/The level of expressed mRNA in the absence of chemical substance” value (yeast gene YOL164W) was 4.4 and the “The level of expressed mRNA in the presence of chemical substance/” value (yeast gene YOR019W, ratio to control without chemical) was 1.2. The “The level of expressed mRNA in the presence of chemical substance/The level of expressed mRNA in the absence of chemical substance” value (yeast gene YOR036W) was 0.9, the “The level of expressed mRNA in the presence of chemical substance/The level of expressed mRNA in the absence of chemical substance” value (yeast gene YOR117W) was 1.3 and the “The level of expressed mRNA in the presence of chemical substance/The level of expressed mRNA in the absence of chemical substance” value (yeast gene YOR124C) was 1.1. For the same substance, the “The level of expressed mRNA in the presence of chemical substance/The level of expressed mRNA in the absence of chemical substance” value (yeast gene YOR132W) was 1.6, the “The level of expressed mRNA in the presence of chemical substance/The level of expressed mRNA in the absence of chemical substance” value (yeast gene YOR157C) was 1.3 and the “The level of expressed mRNA in the presence of chemical substance/in the absence of chemical substance” value (yeast gene YOR180C) was 1.1. For the same substance, the “The level of expressed mRNA in the presence of chemical substance/The level of expressed mRNA in the absence of chemical substance” value (yeast gene YOR181W) was 0.9, the “The level of expressed mRNA in the presence of chemical substance/The level of expressed mRNA in the absence of chemical substance” value (yeast gene YOR185C) was 1.3 and the “The level of expressed mRNA in the presence of chemical substance/” value (yeast gene YOR197W, ratio to control without chemical) was 1.0. For the same substance, the “The level of expressed mRNA in the presence of chemical substance/The level of expressed mRNA in the absence of chemical substance” value (yeast gene YOR198C) was 0.7, the “The level of expressed mRNA in the presence of chemical substance/The level of expressed mRNA in the absence of chemical substance” value (yeast gene YOR259C) was 1.1 and the “The level of expressed mRNA in the presence of chemical substance/The level of expressed mRNA in the absence of chemical substance” value (yeast gene YOR261C) was 1.4. For the same substance, the “The level of expressed mRNA in the presence of chemical substance/The level of expressed mRNA in the absence of chemical substance” value (yeast gene YOR288C) was 1.3, the “The level of expressed mRNA in the presence of chemical substance/The level of expressed mRNA in the absence of chemical substance” value (yeast gene YOR355W) was 0.6 and the “The level of expressed mRNA in the presence of chemical substance/in the absence of chemical substance” value (yeast gene YOR363C) was 2.0. The “The level of expressed mRNA in the presence of chemical substance/The level of expressed mRNA in the absence of chemical substance” value (yeast gene YOR383C) was 4.3, the “The level of expressed mRNA in the presence of chemical substance/” value (yeast gene YPL087W, ratio to control without chemical) was 5.1 and the “The level of expressed mRNA in the presence of chemical substance/The level of expressed mRNA in the absence of chemical substance” value (yeast gene YPL089C) was 1.0. For the same substance, the “The level of expressed mRNA in the presence of chemical substance/The level of expressed mRNA in the absence of chemical substance” value (yeast gene YPL109C) was 2.5, the “The level of expressed mRNA in the presence of chemical substance/The level of expressed mRNA in the absence of chemical substance” value (yeast gene YPL149W) was 1.5 and the “The level of expressed mRNA in the presence of chemical substance/The level of expressed mRNA in the absence of chemical substance” value (yeast gene YPL154C) was 3.3. The “The level of expressed mRNA in the presence of chemical substance/” value (yeast gene YPL196W, ratio to control without chemical) was 1.6, the “The level of expressed mRNA in the presence of chemical substance/” value (yeast gene YPL206C, ratio to control without chemical) was 2.9 and the “The level of expressed mRNA in the presence of chemical substance/” value (yeast gene YPL222W, ratio to control without chemical) was 3.5. For the same substance, the “The level of expressed mRNA in the presence of chemical substance/” value (yeast gene YPR023C, ratio to control without chemical) was 1.4, the “The level of expressed mRNA in the presence of chemical substance/The level of expressed mRNA in the absence of chemical substance” value (yeast gene YPR103W) was 1.1 and the “The level of expressed mRNA in the presence of chemical substance/The level of expressed mRNA in the absence of chemical substance” value (yeast gene YPR108W) was 1.0. The “The level of expressed mRNA in the presence of chemical substance/” value (yeast gene YPR151C, ratio to control without chemical) was 2.0 and the “The level of expressed mRNA in the presence of chemical substance/in the absence of chemical substance” value (yeast gene YPR184W) was 1.4.
